This is an account of results in patent publication US11072601B2, “μ-opioid receptor agonist and preparation method therefor and use thereof in field of medicine” (SHANGHAI SYNERGY PHARMACEUTICAL SCIENCES CO., LTD., priority 2017, dated 2021).

Data set [1] deals with T1, β-arrestin signaling pathway of MOR (Homo sapiens, UniProt P35372).
T1 construct: host or cells: HEK293 (PathHunter cell line)
The data set can be described thus: cell-based. To be noted: PathHunter HEK293 cells, relative to endorphin MAX control.

A further data set deals with T2, μ opioid receptor (MOR) (Homo sapiens, UniProt P35372).
T2 construct: host or cells: HEK293
T2 sequence (P35372 whole entry, species assumed): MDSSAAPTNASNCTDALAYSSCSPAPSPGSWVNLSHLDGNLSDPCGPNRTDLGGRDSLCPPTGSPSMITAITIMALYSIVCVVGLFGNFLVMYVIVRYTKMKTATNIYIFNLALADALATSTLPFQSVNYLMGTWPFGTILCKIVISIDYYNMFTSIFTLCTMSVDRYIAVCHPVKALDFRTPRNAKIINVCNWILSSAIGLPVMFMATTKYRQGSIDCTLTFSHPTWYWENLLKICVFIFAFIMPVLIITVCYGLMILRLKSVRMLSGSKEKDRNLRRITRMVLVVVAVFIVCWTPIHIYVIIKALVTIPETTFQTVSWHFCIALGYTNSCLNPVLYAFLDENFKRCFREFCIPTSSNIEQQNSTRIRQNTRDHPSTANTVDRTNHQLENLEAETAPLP
The data set can be described thus: cell-based. To be noted: HEK293 stably expressing μ opioid receptor, FLIPR calcium. As to the method:
The purpose of the experiment was to test the agonistic effects of the compounds of the present invention on μ opioid receptor (MOR), κ opioid receptor (KOR) and δ opioid receptor (DOR), and to evaluate in vitro activity of the compounds according to the half-maximal effect concentration (EC50).
This test was performed using HEK293 cell lines (the stably expressed cell lines were provided by WuXi AppTec) which stably expressed μ opioid receptor, δ opioid receptor or κ opioid receptor respectively. […] The cells were centrifuged at 1000 rpm for 5 minutes at room temperature to precipitate. The supernatant was sucked out, be careful not to suck out cells. The precipitate was flicked into the loose cells and resuspend in 45 ml DMEM medium. The Vi-CELL XR automatic cell viability detector (BECKMAN COULTER) was used to count the cells, and the cell concentration was adjusted to 10×10^5 cells/ml based on the counting results.
Preparation of probenecid mother solution: 1 ml of FLIPR test solution was added to 77 mg probenecid to prepare a 250 mM solution. The solution was freshly prepared just before use.
The solution was freshly prepared just before use.
The cell plate prepared above was removed from the incubator and 20 ul 2× Fluo-4 Direct™ buffer was added thereto. The final volume in the cell plate was […]. The plate was incubated at 37° C., under 5% CO2 for 50 minutes, and incubated at room temperature for 10 minutes, then was placed into the FLIPR instrument (MD), and the compound plate and pipette box was placed into. The protocol was run on the […] platform, 10 μl of positive drug or the test compound was transfered to the cell plate from the compound plate, and the fluorescent signal was read.
The signal value generated by each well was calculated, and the calculation formula was that: the activity %=(signal value of the test compound−signal value of the solvent)/(signal value of the positive drug−signal value of the solvent).

Data set [2] concerns the target T3, cAMP pathway of MOR receptor (Homo sapiens, UniProt P35372).
T3 construct: host or cells: HEK293 (cAMP Hunter cell line)
Description: cell-based. Particulars: cAMP Hunter HEK293 cells, forskolin-induced cAMP; read-out: EC50 of cAMP levels affected by agonistic effect on MOR. The text has this:
The purpose of this experiment was to test the agonistic effect of the compounds of the invention on the cAMP pathway of MOR and to evaluate the in vitro activity of the compounds according to EC50.
In this experiment, HitHunter cAMP Assay EFC technology of DiscoverX was used to measure the cAMP level in cells and monitor the functional status of G-protein coupled receptors (GPCRs).
The amount of signal produced was directly proportional to the amount of cAMP in the cell.
The MOR receptor was bound to the inhibitory Gαi protein, so forskolin (for inducing cAMP signal) was used to induce cAMP expression in the experiment, and the inhibitory effect of the compounds on the above induction was measured.
The cAMP Hunter cell line (HEK293, DiscoverX) was removed from the freezer and expanded according to the Cell Standard Operating Procedure (SOP), 20 μL was collected and inoculated into a 384-well microplate and incubated at 37° C. overnight.
The HitHunter cAMP Assay test kit (DiscoverX, 90-0075sm) was used, the kit contained cAMP buffer, cAMP detection solution, and cAMP working solution A.
The formula was used to calculate the percentage of signal activity per well=100%×(1−(average RLU of the test samples−average RLU of the MAX controls)/(average RLU of the solvent controls−average RLU of the MAX controls)). wherein, the MAX control referred to the fluorescence signal value of the endorphin solution, and the solvent control referred to the fluorescence signal value of DMSO. The DiscoveRx CBIS data analysis workstation (ChemInnovation, CA) was used to perform statistical analysis of the percentage of signal activity and the concentration of the compounds by the agonist formula (comes with the software, universal) to calculate the EC50 value.

A further data set deals with SD rats. Description: Respiratory depression in rats, arterial blood gas PCO2. Format: in vivo. The text has this:
8-week-old male SD rats weighing 200 g-300 g were used as experimental animals to determine the effect of the compound of Example H05, the compound of Example H08, the compound of Example H10, the compound of Example H16, the compound of Example H17, the compound of Example H18, the compound of Example H21, and the compound of Example H24 on the partial pressure of blood in rats after intravenous administration. The effects of the compounds of the invention on respiratory depression were investigated.
After the rats were acclimatized to the experimental environment for 3 days, each animal was anesthetized with sodium pentobarbital (50-60 mg/kg, ip), and then the right common carotid artery was isolated and the unilateral carotid artery tube-bury surgery was performed (PE60, ID*OD*length as 0.76 mm*1.22 mm*20 cm, buried into the artery 1 cm deep, and the tube was filled with heparin sodium tube sealing solution).

T1 sequence (P35372 whole entry): as the sequence (P35372 whole entry, species assumed) above
T3 sequence (P35372 whole entry): as the sequence (P35372 whole entry, species assumed) above

`FC(F)(F)c1ccc2c(c1)CN(CCC1(c3ccccn3)CCOC3(CCCC3)C1)CC2` (centres unmarked) [Example H19, 2-[2-(9-(pyridin-2-yl)-6-oxaspiro[4.5]decan-9-yl)ethyl]-7-trifluoromethyl-1,2,3,4-tetrahydroisoquinoline] gave an Emax in data set [1] of 1.12%. The EC50 on μ opioid receptor (MOR) stood at 5.43 nM; in data set [2], 18.6 nM.

Take `Fc1ccc(C2(CCNCc3sccc3Cl)CCOC3(CCCC3)C2)nc1` (centres unmarked) [Example H30, {2-[9-(5-fluoro-pyridin-2-yl)-6-oxa-spiro[4.5]decan-9-yl]-ethyl}-((3-chlorothiophen-2-yl)-methyl)-amine]: the Emax in data set [1] stood at 2.91%. Also, the EC50 on μ opioid receptor (MOR) worked out at 5.62 nM; in data set [2], 17.4 nM.

In the case of `CN1CC[C@]23c4c5ccc(O)c4O[C@H]2[C@@H](O)C=C[C@H]3[C@H]1C5` [morphine, reference compound], in the data set with SD rats (arterial blood, before administration), the “PCO2, 5 min before administration” value is 36.41 ± 0.98 mmHg. The “PCO2, 5 min after administration” value in the data set with SD rats (intravenous single dose 0.3 mg/kg (morphine 24 mg/kg), 5 min) amounted to 37.26 ± 1.18 mmHg. Besides, in the data set with SD rats (intravenous single dose 0.3 mg/kg (morphine 24 mg/kg), 30 min), the “PCO2, 30 min after administration” value was 40.94 ± 2.78 mmHg. In addition, in the data set on SD rats (intravenous single dose 0.3 mg/kg (morphine 24 mg/kg), 60 min), the “PCO2, 60 min after administration” value came to 58.63 ± 3.53 mmHg. Also, the “PCO2, 120 min after administration” value in the data set on SD rats (intravenous single dose 0.3 mg/kg (morphine 24 mg/kg), 120 min) turned out to be 56.9 ± 4.05 mmHg.

Consider `COc1ccsc1CNC(C)CC1(c2ccccn2)CCOC2(CCCC2)C1` (centres unmarked) [Example H27], for which the Emax in data set [1] is 3.32%. In addition, the EC50 at μ opioid receptor (MOR) was 4.01 nM; in data set [2], 12 nM.

For the compound `Cc1c(Cl)cccc1CNCCC1(c2ccc(F)cn2)CCOC2(CCCC2)C1` (centres unmarked) [Example H32, {2-[9-(5-fluoro-pyridin-2-yl)-6-oxa-spiro[4.5]decan-9-yl]-ethyl}-(3-chloro-2-methyl-benzyl)-amine], in data set [1], the Emax amounted to 11.7%. Moreover, the EC50 at μ opioid receptor (MOR) turned out to be 7.35 nM; in data set [2] it was 13.5 nM.

The compound `Oc1ccc(CNCCC2(c3ccccn3)CCOC3(CCCC3)C2)c(OC(F)(F)F)c1` (centres unmarked) [Example H15, 4-{[2-(9-(pyridin-2-yl)-6-oxaspiro[4.5]decan-9-yl)ethylamine]methyl}-3-trifluoromethoxyphenol] showed an Emax in data set [1] of 15.8%. The EC50 stood at 3.32 nM at μ opioid receptor (MOR) and 4.28 nM in data set [2].

With `COc1ccsc1CNCC(C)C1(c2ccccn2)CCOC2(CCCC2)C1` (centres unmarked) [Example H26], the Emax in data set [1] was 22.6%. Besides, the EC50 at μ opioid receptor (MOR) is 1.76 nM; in data set [2], 6.95 nM.

In the case of `c1ccc(C2(CCN3CCc4ccsc4C3)CCOC3(CCCC3)C2)nc1` (centres unmarked) [Example H23, 6-[2-(9-pyridin-2-yl-6-oxa-spiro[4.5]decan-9-yl)-ethyl]-4,5,6,7-tetrahydro-thieno[2,3-c]pyridine], the Emax in data set [1] is 2.2%. Also, the EC50 is 4.08 nM on μ opioid receptor (MOR) and 9.73 nM in data set [2].

In turn, `COc1ccc2c(c1)CN(CCC1(c3ccccn3)CCOC3(CCCC3)C1)CC2` (centres unmarked) [Example H20, 7-methoxy-2-[2-(9-pyridin-2-yl-6-oxa-spiro[4.5]decan-9-yl)-ethyl]-1,2,3,4-tetrahydroisoquinoline] registered an Emax in data set [1] of 2.12%. Moreover, the EC50 on μ opioid receptor (MOR) is 3.53 nM; in data set [2], 19.9 nM.

In the case of `N#Cc1cccc(CNCCC2(c3ccccn3)CCOC3(CCCC3)C2)c1OC(F)(F)F` (centres unmarked) [Example H13], the Emax in data set [1] was 3.41%. For the same compound, the EC50 stood at 5.16 nM on μ opioid receptor (MOR) and 9.43 nM in data set [2].

`Fc1cnc(C2(CCNCc3ccccc3OC(F)(F)F)CCOC3(CCCC3)C2)c(Cl)c1` (centres unmarked) [Example H09, (2-trifluoromethoxybenzyl)-[2-(9-(3-chloro-5-fluoropyridin-2-yl)-6-oxaspiro[4.5]decan-9-yl)ethyl]amine] returned an Emax in data set [1] of 3.28%. For the same compound, the concentration giving a half-maximal response (EC50) was 4.12 nM on μ opioid receptor (MOR) and 8.45 nM in data set [2].

In data set [1], `Fc1ccc(C2(CCNCc3sccc3OC(F)F)CCOC3(CCCC3)C2)nc1` (centres unmarked) [Example H33, {2-[9-(5-fluoro-pyridin-2-yl)-6-oxa-spiro[4.5]decan-9-yl]-ethyl}-((3-difluoromethoxythiophen-2-yl) -methyl)-amine] gave an Emax of 8.69%. In addition, the EC50 is 5.25 nM on μ opioid receptor (MOR) and 12 nM in data set [2].

Consider `FC(F)(F)Oc1cc(Br)ccc1CNCCC1(c2ccccn2)CCOC2(CCCC2)C1` (centres unmarked) [Example H11, (4-bromo-2-trifluoromethoxybenzyl)-[2-(9-(pyridin-2-yl)-6-oxaspiro[4.5]decan-9-yl)ethyl]amine], for which, in data set [1], the Emax was determined as 2.28%. Besides, the EC50 stood at 2.08 nM on μ opioid receptor (MOR) and 7.31 nM in data set [2].

`Fc1ccc(C2(CCNCc3ccccc3OC(F)F)CCOC3(CCCC3)C2)nc1` (centres unmarked) [Example H29, {2-[9-(5-fluoro-pyridin-2-yl) -6-oxa-spiro[4.5]decan-9-yl]-ethyl}-(2-(difluoromethoxy)-benzyl) -amine] gave an Emax in data set [1] of 7.07%. Further, the EC50 on μ opioid receptor (MOR) was 6.09 nM; in data set [2] it was 10.4 nM.

`Cc1ccc(CNCCC2(c3ccccn3)CCOC3(CCCC3)C2)c(OC(F)(F)F)c1` (centres unmarked) [Example H12, (4-methyl-2-trifluoromethoxybenzyl)-[2-(9-(pyridin-2-yl)-6-oxaspiro[4.5]decan-9-yl)ethyl]amine]: the Emax in data set [1] was 32.2%. For the same compound, the results for the EC50 (on μ opioid receptor (MOR); in data set [2]) were 2.04 nM and 5.51 nM, respectively.

In data set [1], `FC(F)(F)Oc1c(Br)cccc1CNCCC1(c2ccccn2)CCOC2(CCCC2)C1` (centres unmarked) [Example H28, (3-bromo-2-trifluoromethoxybenzyl)-[2-(9-pyridin-2-yl-6-oxa-spiro[4.5]decan-9-yl)-ethyl]-amine] returned an Emax of 6.26%. Moreover, the results for the 50% effective concentration (EC50) (on μ opioid receptor (MOR); in data set [2]) were 6.35 nM and 14.2 nM, respectively.

In data set [1], `FC(F)(F)Oc1ccc(CNCCC2(c3ccccn3)CCOC3(CCCC3)C2)cc1` (centres unmarked) [Example H06, (4-trifluoromethoxybenzyl)-[2-(9-(pyridin-2-yl)-6-oxaspiro[4.5]decan-9-yl)ethyl]amine] displayed an Emax of 0.66%. Besides, the EC50 at μ opioid receptor (MOR) is 6.1 nM; in data set [2] it was 11.8 nM.

`FC(F)(F)c1ccsc1CNCCC1(c2ccccn2)CCOC2(CCCC2)C1` (centres unmarked) [Example H14, ((3-trifluoromethylthiophen-2-yl)methyl)-[2-(9-(pyridin-2-yl)-6-oxaspiro[4.5]decan-9-yl)ethyl]a mine] had an Emax in data set [1] of 1.82%. Moreover, the EC50 turned out to be 2.1 nM on μ opioid receptor (MOR) and 15.9 nM in data set [2].

Turning to `COc1[nH]ncc1CNCCC1(c2ccccn2)CCOC2(CCCC2)C1` (centres unmarked) [Example H25, [(5-methoxy-1H-pyrazol-4-yl)methyl]-[2-(9-(pyridin-2-yl)-6-oxaspiro[4.5]decan-9-yl)ethyl] amine], the Emax in data set [1] turned out to be 3.2%. The EC50 stood at 2.02 nM on μ opioid receptor (MOR) and 12.8 nM in data set [2].
